In patent US20060194800A1, “Pteridine derivatives as nitric oxide synthase activators” (University of Strathclyde, priority 2005, published 2006):

What follows are molecules tested on rat pulmonary artery (assay: Rat pulmonary artery ring relaxation (endogenous tetrahydrobiopterin present)). Settings: rat pulmonary artery, normal or DAHP-treated.
Method: Rings (5 mm long) of rat pulmonary artery and aorta, were supported on a pair of intraluminal wires at 1 gm tension for one hour and then contracted with their EC50 phenylephrine concentration, which for pulmonary artery was 3.6×10^−8 M (derived from preliminary experiments) and for aorta was 11.8×10^−8 M (from the previously published literature). The rings were then relaxed with carbachol (10 μM). If the relaxation to carbachol was >75%, then the tissues were used to generate dose responses by addition of tetrahydrobiopterin (BH4) or the analogues. Stock BH4 was stored at −20° C. and the dilutions were prepared using saline just before adding the drug into the bath. Solutions of analogues were stored at 4° C. Cumulatively increasing concentrations of the analogues were added to the bath and the extent of relaxation was measured when it had stabilised. Another ring from the same rat was treated in parallel with the solvent for the analogue. The solvent used was NH4OH. The results are shown graphically in FIGS. 1 and 2.

SMILES | concentrations of tetrahydrobiopterin causing contraction
C[C@H](O)[C@H](O)[C@H]1CNc2nc(N)[nH]c(=O)c2N1 [tetrahydrobiopterin, reference compound] | above 3 μM

What follows are molecules tested against T1, iNOS (Mus musculus, UniProt P29477) (assay: Macrophage assay (iNOS), macrophages depleted of tetrahydrobiopterin by DAHP). Settings: 72 h; tested at 1 microM in macrophages; P = promotes NOS activity; read-out: iNOS effect *H155.
T1 construct: stimulated macrophages that produce iNOS; endogenous in cells; host or cells: primary mouse macrophages (from femur), LPS-stimulated, DAHP-treated
Format: cell-based

T1 sequence (P29477 whole entry): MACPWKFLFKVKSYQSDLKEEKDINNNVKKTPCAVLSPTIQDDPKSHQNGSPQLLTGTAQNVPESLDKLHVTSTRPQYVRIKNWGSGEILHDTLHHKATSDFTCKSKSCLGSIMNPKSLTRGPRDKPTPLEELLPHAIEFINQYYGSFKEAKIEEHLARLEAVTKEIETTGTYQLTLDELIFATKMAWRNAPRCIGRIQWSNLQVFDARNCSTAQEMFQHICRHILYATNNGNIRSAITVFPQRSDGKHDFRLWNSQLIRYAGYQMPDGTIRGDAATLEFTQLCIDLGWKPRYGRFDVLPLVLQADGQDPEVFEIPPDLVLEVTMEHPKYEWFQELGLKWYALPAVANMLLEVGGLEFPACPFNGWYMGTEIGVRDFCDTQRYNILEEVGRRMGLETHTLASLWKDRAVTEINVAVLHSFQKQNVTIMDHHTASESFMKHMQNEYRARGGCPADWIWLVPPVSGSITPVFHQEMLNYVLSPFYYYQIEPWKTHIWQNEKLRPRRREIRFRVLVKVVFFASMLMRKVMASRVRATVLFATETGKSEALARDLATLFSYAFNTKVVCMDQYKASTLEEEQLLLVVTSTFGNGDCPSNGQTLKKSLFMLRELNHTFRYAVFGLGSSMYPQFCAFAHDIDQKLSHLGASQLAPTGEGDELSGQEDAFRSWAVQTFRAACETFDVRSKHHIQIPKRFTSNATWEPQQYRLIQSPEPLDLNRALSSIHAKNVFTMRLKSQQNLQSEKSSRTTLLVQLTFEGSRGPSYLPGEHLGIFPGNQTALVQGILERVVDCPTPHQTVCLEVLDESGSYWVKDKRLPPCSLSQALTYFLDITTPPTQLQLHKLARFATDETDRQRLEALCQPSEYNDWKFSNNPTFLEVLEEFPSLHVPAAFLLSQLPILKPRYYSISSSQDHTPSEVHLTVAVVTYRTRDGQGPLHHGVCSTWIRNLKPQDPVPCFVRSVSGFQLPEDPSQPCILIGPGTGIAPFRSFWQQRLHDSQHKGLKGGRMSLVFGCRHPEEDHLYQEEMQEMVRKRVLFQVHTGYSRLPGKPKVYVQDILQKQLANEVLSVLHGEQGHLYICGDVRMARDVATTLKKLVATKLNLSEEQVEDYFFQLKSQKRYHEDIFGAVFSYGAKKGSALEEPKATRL

activation at 1 µM | SMILES
20 to 50% | CC1=Nc2c(nc(N)[nH]c2=O)NC1C (stereo not shown) [wsg1011, 2-Amino-6,7-dimethyl-4-oxo-3,4,7,8-tetrahydro-pteridin-8-ium Cl-]
20 to 50% | CC12CCCCC1=Nc1c(nc(N)[nH]c1=O)N2 (stereo not shown) [wsg1007, 2-Amino-9a-methyl-6,7,8,9,9a,10-hexahydro-3H-benzo[g]pteridin-4-one]
20 to 50% | Nc1nc2ncc(C=O)nc2c(=O)[nH]1 [wsg1003, 2-Amino-4-oxo-3,4-dihydro-pteridine-6-carbaldehyde]
20 to 50% | Cc1nc2nc(N)[nH]c(=O)c2nc1C [wsg1009, 2-Amino-6,7-dimethyl-3H-pteridin-4-one]
< 20% | CC1(CCc2ccccc2)Nc2nc(N)[nH]c(=O)c2N=C1C=O (stereo not shown) [wsg1016, 2-Amino-7-methyl-4-oxo-7-phenethyl-3,4,7,8-tetrahydro-pteridine-6-carbaldehyde]
20 to 50% | CC1(C)Nc2nc(N)[nH]c(=O)c2N=C1CO [wsg1004, 2-Amino-6-hydroxymethyl-7,7-dimethyl-7,8-dihydro-3H-pteridin-4-one]
20 to 50% | CC1(CCc2ccccc2)Nc2nc(N)[nH]c(=O)c2N=C1CO (stereo not shown) [wsg1018, 2-Amino-6-hydroxymethyl-7-methyl-7-phenethyl-7,8-dihydro-3H-pteridin-4-one]
< 20% | CC1=Nc2c(nc(N)[nH]c2=O)OC1(C)C [wsg1019, 2-Amino-6,7,7-trimethyl-3,7-dihydro-pyrimido[4,5-b][1,4]oxazin-4-one]
20 to 50% | CCC1=Nc2c(nc(N)[nH]c2=O)NC1(C)C [wsg1006, 2-Amino-6-ethyl-7,7-dimethyl-7,8-dihydro-3H-pteridin-4-one]
> 50% | CC1(C)Nc2nc(N)[nH]c(=O)c2N=C1/C=C/c1ccc(Cl)cc1 [wsg1017, 2-Amino-6-[2-(4-chloro-phenyl)-vinyl]-7,7-dimethyl-7,8-dihydro-3H-pteridin-4-one]
< 20% | CCC1(CC)Nc2nc(N)[nH]c(=O)c2N=C1CO [wsg1014, 2-Amino-7,7-diethyl-6-hydroxymethyl-7,8-dihydro-3H-pteridin-4-one]
20 to 50% | Nc1nc2ncc(C(=O)O)nc2c(=O)[nH]1 [wsg1005, 2-Amino-4-oxo-3,4-dihydro-pteridine-6-carboxylic acid]
20 to 50% | CC1Nc2nc(N)[nH]c(=O)c2NC1C (stereo not shown) [wsg1010, 2-Amino-6,7-dimethyl-4-oxo-3,4,5,6,7,8-hexahydro-pteridin-5-ium Cl-]
20 to 50% | CC1(C)Nc2nc(N)[nH]c(=O)c2N=C1Cc1ccccc1 [wsg1012, 2-Amino-6-benzyl-7,7-dimethyl-7,8-dihydro-3H-pteridin-4-one]
20 to 50% | CC12CCCC1(S(=O)(=O)O)Nc1c(nc(N)[nH]c1=O)N2 (stereo not shown) [wsg1008, 6-Amino-3a-methyl-8-oxo-1,2,3,3a,4,7,8,9-octahydro-4,5,7,9-tetraaza-cyclopenta[b]naphthalene-9a-sulfonic acid]
